Reference: patent US6613718B2, “Aryl ether derivatives and processes for their preparation and herbicidal and desiccant compositions containing them” (Ishihara Sangyo Kaisha, Ltd., priority 2001, dated 2003)

Legend:
Assay type in all cases: in vivo
Details in all cases: 14 days after application
[1] = test system: field corn (Zea mays L., var. Dekalb 535, CORN); experiment: Post-emerge greenhouse screening, crop safety / corn selectivity (phytotoxicity rating)
Method in brief: (§1)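 Pre-emerge: seeds sown 1 day before spray; acetone solutions, 15–1000 g ai/ha, track sprayer; soil watered after application, then bottom-watered. Post-emerge: plants at 2-3 leaf stage (sown 8-21 days prior), 0.25% v/v non-ionic surfactant added, bottom-watered only. Rated 0-100 at 14 DAA.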

[2] = test system: upland rice (Oryza sp., var.Tebonnet, RICE); experiment: Post-emerge greenhouse screening, crop safety (phytotoxicity rating)
Method in brief: as §1

[3] = test system: soybean (Glycine max L., var. Pella 86, SOY); experiment: as above
Method in brief: as §1

[4] = test system: upland rice (Oryza sp., var.Tebonnet, RICE); experiment: Pre-emerge greenhouse screening, crop safety (phytotoxicity rating)
Method in brief: as §1

[5] = test system: soybean (Glycine max L., var. Pella 86, SOY); experiment: as above
Method in brief: as §1

[6] = test system: field corn (Zea mays L., var. Dekalb 535, CORN); experiment: as above
Method in brief: as §1

[7] = test system: barnyardgrass (Echinochloa crus-galli, ECHCG); experiment: Post-emerge greenhouse herbicide activity screening, phytotoxicity rating
Method in brief: as §1

[8] = test system: redroot pigweed (Amaranthus retroflexus, AMARE); experiment: as above
Method in brief: as §1

[9] = test system: johnsongrass (Sorghum halepense, SORHA); experiment: as above
Method in brief: as §1

[10] = test system: sicklepod (Cassia obtusifolia, CASOB); experiment: as above
Method in brief: as §1

[11] = test system: common ragweed (Ambrosia artemisiifolia L., AMBEL); experiment: as above
Method in brief: as §1

[12] = test system: velvetleaf (Abutilon theophrasti, ABUTH); experiment: as above
Method in brief: as §1

[13] = test system: ivyleaf morningglory (Ipomoea hederacea, IPOHE); experiment: as above
Method in brief: as §1

[14] = test system: green foxtail (Setaria viridis, SETVI); experiment: as above
Method in brief: as §1

[15] = test system: lambsquarters (Chenopodium album, CHEAL); experiment: as above
Method in brief: as §1

[16] = test system: large crabgrass (Digitaria sanguinalis, DIGSA); experiment: as above
Method in brief: as §1

[17] = test system: barnyardgrass (Echinochloa crus-galli, ECHCG); experiment: Pre-emerge greenhouse herbicide activity screening, phytotoxicity rating
Method in brief: as §1

[18] = test system: redroot pigweed (Amaranthus retroflexus, AMARE); experiment: as above
Method in brief: as §1

[19] = test system: johnsongrass (Sorghum halepense, SORHA); experiment: as above
Method in brief: as §1

[20] = test system: sicklepod (Cassia obtusifolia, CASOB); experiment: as above
Method in brief: as §1

[21] = test system: common ragweed (Ambrosia artemisiifolia L., AMBEL); experiment: as above
Method in brief: as §1

[22] = test system: velvetleaf (Abutilon theophrasti, ABUTH); experiment: as above
Method in brief: as §1

[23] = test system: ivyleaf morningglory (Ipomoea hederacea, IPOHE); experiment: as above
Method in brief: as §1

[24] = test system: green foxtail (Setaria viridis, SETVI); experiment: as above
Method in brief: as §1

[25] = test system: lambsquarters (Chenopodium album, CHEAL); experiment: as above
Method in brief: as §1

[26] = test system: large crabgrass (Digitaria sanguinalis, DIGSA); experiment: as above
Method in brief: as §1

Cn1c(C(F)(F)F)cc(=O)n(-c2cc(Oc3ccccc3)c(Cl)cc2F)c1=S [Compound 1-47]
CORN crop damage, phytotoxicity rating (0-100 scale) ([1]; 125 g ai/ha): 0 | CORN crop damage, phytotoxicity rating (0-100 scale) ([1]; 250 g ai/ha): 0 | RICE crop damage, phytotoxicity rating (0-100 scale) ([2]; 125 g ai/ha): 0 | RICE crop damage, phytotoxicity rating (0-100 scale) ([2]; 250 g ai/ha): 0 | SOY crop damage, phytotoxicity rating (0-100 scale) ([3]; 125 g ai/ha): 15 | SOY crop damage, phytotoxicity rating (0-100 scale) ([3]; 250 g ai/ha): 40 | RICE crop damage, phytotoxicity rating (0-100 scale) ([4]; 125 g ai/ha): 15 | RICE crop damage, phytotoxicity rating (0-100 scale) ([4]; 250 g ai/ha): 25 | SOY crop damage, phytotoxicity rating (0-100 scale) ([5]; 125 g ai/ha): 50 | SOY crop damage, phytotoxicity rating (0-100 scale) ([5]; 250 g ai/ha): 65 | CORN crop damage, phytotoxicity rating (0-100 scale) ([6]; 125 g ai/ha): 5 | CORN crop damage, phytotoxicity rating (0-100 scale) ([6]; 250 g ai/ha): 8 | ECHCG phytotoxicity rating (0-100 scale) ([7]; 125 g ai/ha): 60 | ECHCG phytotoxicity rating (0-100 scale) ([7]; 250 g ai/ha): 65 | AMARE phytotoxicity rating (0-100 scale) ([8]; 125 g ai/ha): 100 | AMARE phytotoxicity rating (0-100 scale) ([8]; 250 g ai/ha): 100 | SORHA phytotoxicity rating (0-100 scale) ([9]; 125 g ai/ha): 0 | SORHA phytotoxicity rating (0-100 scale) ([9]; 250 g ai/ha): 0 | CASOB phytotoxicity rating (0-100 scale) ([10]; 125 g ai/ha): 65 | CASOB phytotoxicity rating (0-100 scale) ([10]; 250 g ai/ha): 65 | AMBEL phytotoxicity rating (0-100 scale) ([11]; 125 g ai/ha): 70 | AMBEL phytotoxicity rating (0-100 scale) ([11]; 250 g ai/ha): 75 | ABUTH phytotoxicity rating (0-100 scale) ([12]; 125 g ai/ha): 100 | ABUTH phytotoxicity rating (0-100 scale) ([12]; 250 g ai/ha): 100 | IPOHE phytotoxicity rating (0-100 scale) ([13]; 125 g ai/ha): 75 | IPOHE phytotoxicity rating (0-100 scale) ([13]; 250 g ai/ha): 85 | SETVI phytotoxicity rating (0-100 scale) ([14]; 125 g ai/ha): 50 | SETVI phytotoxicity rating (0-100 scale) ([14]; 250 g ai/ha): 75 | CHEAL phytotoxicity rating (0-100 scale) ([15]; 125 g ai/ha): 99 | CHEAL phytotoxicity rating (0-100 scale) ([15]; 250 g ai/ha): 100 | DIGSA phytotoxicity rating (0-100 scale) ([16]; 125 g ai/ha): 10 | DIGSA phytotoxicity rating (0-100 scale) ([16]; 250 g ai/ha): 35 | ECHCG phytotoxicity rating (0-100 scale) ([17]; 125 g ai/ha): 80 | ECHCG phytotoxicity rating (0-100 scale) ([17]; 250 g ai/ha): 85 | AMARE phytotoxicity rating (0-100 scale) ([18]; 125 g ai/ha): 100 | AMARE phytotoxicity rating (0-100 scale) ([18]; 250 g ai/ha): 100 | SORHA phytotoxicity rating (0-100 scale) ([19]; 125 g ai/ha): 50 | SORHA phytotoxicity rating (0-100 scale) ([19]; 250 g ai/ha): 55 | CASOB phytotoxicity rating (0-100 scale) ([20]; 125 g ai/ha): 90 | CASOB phytotoxicity rating (0-100 scale) ([20]; 250 g ai/ha): 99 | AMBEL phytotoxicity rating (0-100 scale) ([21]; 125 g ai/ha): 95 | AMBEL phytotoxicity rating (0-100 scale) ([21]; 250 g ai/ha): 99 | ABUTH phytotoxicity rating (0-100 scale) ([22]; 125 g ai/ha): 100 | ABUTH phytotoxicity rating (0-100 scale) ([22]; 250 g ai/ha): 100 | IPOHE phytotoxicity rating (0-100 scale) ([23]; 125 g ai/ha): 95 | IPOHE phytotoxicity rating (0-100 scale) ([23]; 250 g ai/ha): 98 | SETVI phytotoxicity rating (0-100 scale) ([24]; 125 g ai/ha): 100 | SETVI phytotoxicity rating (0-100 scale) ([24]; 250 g ai/ha): 100 | CHEAL phytotoxicity rating (0-100 scale) ([25]; 125 g ai/ha): 100 | CHEAL phytotoxicity rating (0-100 scale) ([25]; 250 g ai/ha): 100 | DIGSA phytotoxicity rating (0-100 scale) ([26]; 125 g ai/ha): 95 | DIGSA phytotoxicity rating (0-100 scale) ([26]; 250 g ai/ha): 100

Cn1nc(-c2cc(Oc3ncccn3)c(Cl)cc2F)c(=O)n(C)c1=S [Compound 4-1, 6-[4-Chloro-2-fluoro-5-(2-pyrimidinyloxy)phenyl]-3,4-dihydro-2,4-dimethyl-3-thioxo-1,2,4-triazin-5(2H)-one]
CORN crop damage, phytotoxicity rating (0-100 scale) ([1]; 125 g ai/ha): 5 | CORN crop damage, phytotoxicity rating (0-100 scale) ([1]; 250 g ai/ha): 15 | RICE crop damage, phytotoxicity rating (0-100 scale) ([2]; 125 g ai/ha): 0 | RICE crop damage, phytotoxicity rating (0-100 scale) ([2]; 250 g ai/ha): 15 | SOY crop damage, phytotoxicity rating (0-100 scale) ([3]; 125 g ai/ha): 50 | SOY crop damage, phytotoxicity rating (0-100 scale) ([3]; 250 g ai/ha): 50 | RICE crop damage, phytotoxicity rating (0-100 scale) ([4]; 125 g ai/ha): 50 | RICE crop damage, phytotoxicity rating (0-100 scale) ([4]; 250 g ai/ha): 60 | SOY crop damage, phytotoxicity rating (0-100 scale) ([5]; 125 g ai/ha): 0 | SOY crop damage, phytotoxicity rating (0-100 scale) ([5]; 250 g ai/ha): 0 | CORN crop damage, phytotoxicity rating (0-100 scale) ([6]; 125 g ai/ha): 0 | CORN crop damage, phytotoxicity rating (0-100 scale) ([6]; 250 g ai/ha): 10 | ECHCG phytotoxicity rating (0-100 scale) ([7]; 125 g ai/ha): 55 | ECHCG phytotoxicity rating (0-100 scale) ([7]; 250 g ai/ha): 75 | AMARE phytotoxicity rating (0-100 scale) ([8]; 125 g ai/ha): 100 | AMARE phytotoxicity rating (0-100 scale) ([8]; 250 g ai/ha): 100 | SORHA phytotoxicity rating (0-100 scale) ([9]; 125 g ai/ha): 50 | SORHA phytotoxicity rating (0-100 scale) ([9]; 250 g ai/ha): 75 | CASOB phytotoxicity rating (0-100 scale) ([10]; 125 g ai/ha): 55 | CASOB phytotoxicity rating (0-100 scale) ([10]; 250 g ai/ha): 55 | AMBEL phytotoxicity rating (0-100 scale) ([11]; 125 g ai/ha): 30 | AMBEL phytotoxicity rating (0-100 scale) ([11]; 250 g ai/ha): 60 | ABUTH phytotoxicity rating (0-100 scale) ([12]; 125 g ai/ha): 99 | ABUTH phytotoxicity rating (0-100 scale) ([12]; 250 g ai/ha): 100 | IPOHE phytotoxicity rating (0-100 scale) ([13]; 125 g ai/ha): 70 | IPOHE phytotoxicity rating (0-100 scale) ([13]; 250 g ai/ha): 70 | SETVI phytotoxicity rating (0-100 scale) ([14]; 125 g ai/ha): 50 | SETVI phytotoxicity rating (0-100 scale) ([14]; 250 g ai/ha): 60 | CHEAL phytotoxicity rating (0-100 scale) ([15]; 125 g ai/ha): 99 | CHEAL phytotoxicity rating (0-100 scale) ([15]; 250 g ai/ha): 100 | DIGSA phytotoxicity rating (0-100 scale) ([16]; 125 g ai/ha): 50 | DIGSA phytotoxicity rating (0-100 scale) ([16]; 250 g ai/ha): 60 | ECHCG phytotoxicity rating (0-100 scale) ([17]; 125 g ai/ha): 90 | ECHCG phytotoxicity rating (0-100 scale) ([17]; 250 g ai/ha): 99 | AMARE phytotoxicity rating (0-100 scale) ([18]; 125 g ai/ha): 100 | AMARE phytotoxicity rating (0-100 scale) ([18]; 250 g ai/ha): 100 | SORHA phytotoxicity rating (0-100 scale) ([19]; 125 g ai/ha): 99 | SORHA phytotoxicity rating (0-100 scale) ([19]; 250 g ai/ha): 100 | CASOB phytotoxicity rating (0-100 scale) ([20]; 125 g ai/ha): 50 | CASOB phytotoxicity rating (0-100 scale) ([20]; 250 g ai/ha): 60 | AMBEL phytotoxicity rating (0-100 scale) ([21]; 125 g ai/ha): 85 | AMBEL phytotoxicity rating (0-100 scale) ([21]; 250 g ai/ha): 85 | ABUTH phytotoxicity rating (0-100 scale) ([22]; 125 g ai/ha): 65 | ABUTH phytotoxicity rating (0-100 scale) ([22]; 250 g ai/ha): 95 | IPOHE phytotoxicity rating (0-100 scale) ([23]; 125 g ai/ha): 75 | IPOHE phytotoxicity rating (0-100 scale) ([23]; 250 g ai/ha): 100 | SETVI phytotoxicity rating (0-100 scale) ([24]; 125 g ai/ha): 100 | SETVI phytotoxicity rating (0-100 scale) ([24]; 250 g ai/ha): 100 | CHEAL phytotoxicity rating (0-100 scale) ([25]; 125 g ai/ha): 100 | CHEAL phytotoxicity rating (0-100 scale) ([25]; 250 g ai/ha): 100 | DIGSA phytotoxicity rating (0-100 scale) ([26]; 125 g ai/ha): 99 | DIGSA phytotoxicity rating (0-100 scale) ([26]; 250 g ai/ha): 100
